Reference: US20200017495A1, “NOVEL HETEROCYCLIC COMPOUNDS AND THEIR USE IN PREVENTING OR TREATING BACTERIAL INFECTIONS” (priority 2017, published 2020)

Key:
Assay in all cases: MIC of compounds alone and combined with antibacterials, broth microdilution (CLSI)
Format in all cases: cell-based
[1] = system: Citrobacter koseri (CKR) isolates
In short: (§1)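 Broth microdilution in cation-adjusted Mueller-Hinton broth, inoculum 5.10^5 CFU/mL, 16-20 h at 35° C in ambient air, on genotyped isolates. Compound MIC, alone or with an antibacterial, taken visually as lowest concentration preventing growth; antibacterial MIC determined at each compound concentration.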

[2] = system: Enterobacter aerogenes (EAE) isolates
In short: as §1

[3] = system: Enterobacter cloacae (ECL) isolates
In short: as §1

C=CC1=C(C(=O)O)N2C(=O)[C@@H](NC(=O)/C(=N\OCC(=O)O)c3csc(N)n3)[C@H]2SC1 [FIX, Cefixime]
MIC ATB in combination ([1]; CKO ROU, AF2 @ 8 μg/mL): 0.5 µg/mL | MIC ATB in combination ([1]; CKO ROU, AF3 @ 8 μg/mL): 1 µg/mL | MIC ATB in combination ([1]; CKO ROU, CLA @ 4 μg/mL): 2 µg/mL | MIC ATB in combination ([1]; CKO UFR149, AF2 @ 8 μg/mL): <0.25 µg/mL | MIC ATB in combination ([1]; CKO UFR149, AF3 @ 8 μg/mL): <0.25 µg/mL | MIC ATB in combination ([1]; CKO UFR149, CLA @ 4 μg/mL): 1 µg/mL | MIC ATB in combination ([1]; CKO UFR150, AF2 @ 8 μg/mL): 2 µg/mL | MIC ATB in combination ([1]; CKO UFR150, AF3 @ 8 μg/mL): 2 µg/mL | MIC ATB in combination ([1]; CKO UFR150, CLA @ 4 μg/mL): 2 µg/mL | MIC ([1]; strain CKO ROU, genotype TEM-1, SHV-12, CTX-M-15, OXA-1, OXA-48): 1 µg/mL | MIC ([1]; strain CKO UFR149, genotype OXA-48): 0.5 µg/mL | MIC ([1]; strain CKO UFR150, genotype TEM-1, OXA-48): 2 µg/mL | MIC ATB in combination ([2]; EAE 49469, AF2 @ 8 μg/mL): <0.25 µg/mL | MIC ATB in combination ([2]; EAE 49469, AF3 @ 8 μg/mL): <0.25 µg/mL | MIC ATB in combination ([2]; EAE 49469, CLA @ 4 μg/mL): >128 µg/mL | MIC ATB in combination ([2]; EAE 200261, AF2 @ 8 μg/mL): 8 µg/mL | MIC ATB in combination ([2]; EAE 200261, AF3 @ 8 μg/mL): <0.25 µg/mL | MIC ATB in combination ([2]; EAE 200261, CLA @ 4 μg/mL): >128 µg/mL | MIC ATB in combination ([2]; EAE UFR199, AF2 @ 8 μg/mL): 0.5 µg/mL | MIC ATB in combination ([2]; EAE UFR199, AF3 @ 8 μg/mL): <=0.25 μg/mL | MIC ATB in combination ([2]; EAE UFR199, CLA @ 4 μg/mL): 16 µg/mL | MIC ATB in combination ([2]; EAE UFR201, AF2 @ 8 μg/mL): <0.25 µg/mL | MIC ATB in combination ([2]; EAE UFR201, AF3 @ 8 μg/mL): <0.25 µg/mL | MIC ATB in combination ([2]; EAE UFR201, CLA @ 4 μg/mL): <=0.25 μg/mL | MIC ATB in combination ([2]; EAE UFR202, AF2 @ 8 μg/mL): 16 µg/mL | MIC ATB in combination ([2]; EAE UFR202, AF3 @ 8 μg/mL): 4 µg/mL | MIC ATB in combination ([2]; EAE UFR207, AF2 @ 8 μg/mL): <0.25 µg/mL | MIC ATB in combination ([2]; EAE UFR207, AF3 @ 8 μg/mL): <0.25 µg/mL | MIC ATB in combination ([2]; EAE UFR207, CLA @ 4 μg/mL): 1 µg/mL | MIC ATB in combination ([2]; EAE UFR213, AF2 @ 8 μg/mL): 16 µg/mL | MIC ATB in combination ([2]; EAE UFR213, AF3 @ 8 μg/mL): <=0.25 μg/mL | MIC ([2]; strain EAE 49469, genotype AmpC): >128 µg/mL | MIC ([2]; strain EAE 200261, genotype TEM-x, AmpC): >128 µg/mL | MIC ([2]; strain EAE UFR199, compound alone): >1024 µg/mL | MIC ([2]; strain EAE UFR199, genotype TEM-1b, SHV-12, KPC-2, OXA-9): >1024 µg/mL | MIC ([2]; strain EAE UFR201, genotype TEM-1, SHV-12, CTX-M-15): >128 µg/mL | MIC ([2]; strain EAE UFR202, genotype TEM-24): >128 µg/mL | MIC ([2]; strain EAE UFR213, genotype TEM-24): >128 µg/mL | MIC ATB in combination ([3]; ECL 2185D, AF2 @ 8 μg/mL): >128 µg/mL | MIC ATB in combination ([3]; ECL 2185D, AF3 @ 8 μg/mL): >128 µg/mL | MIC ATB in combination ([3]; ECL 2185D, CLA @ 4 μg/mL): >128 µg/mL | MIC ATB in combination ([3]; ECL 190310, AF2 @ 8 μg/mL): >128 µg/mL | MIC ATB in combination ([3]; ECL 190310, AF3 @ 8 μg/mL): 64 µg/mL | MIC ATB in combination ([3]; ECL 190310, CLA @ 4 μg/mL): >128 µg/mL | MIC ATB in combination ([3]; ECL 190408, AF2 @ 8 μg/mL): <0.25 µg/mL | MIC ATB in combination ([3]; ECL 190408, AF3 @ 8 μg/mL): <0.25 µg/mL | MIC ATB in combination ([3]; ECL 190408, CLA @ 4 μg/mL): 128 µg/mL | MIC ATB in combination ([3]; ECL 200138, AF2 @ 8 μg/mL): >128 µg/mL | MIC ATB in combination ([3]; ECL 200138, AF3 @ 8 μg/mL): >128 µg/mL | MIC ATB in combination ([3]; ECL 200138, CLA @ 4 μg/mL): >128 µg/mL | MIC ATB in combination ([3]; ECL 200322, AF2 @ 8 μg/mL): <=0.25 μg/mL | MIC ATB in combination ([3]; ECL 200322, AF3 @ 8 μg/mL): <0.25 µg/mL | MIC ATB in combination ([3]; ECL 200322, CLA @ 4 μg/mL): 64 µg/mL | MIC ATB in combination ([3]; ECL 260033, AF2 @ 8 μg/mL): >128 µg/mL | MIC ATB in combination ([3]; ECL 260033, AF3 @ 8 μg/mL): >128 µg/mL | MIC ATB in combination ([3]; ECL 260033, CLA @ 4 μg/mL): >128 µg/mL | MIC ATB in combination ([3]; ECL 260253, AF2 @ 8 μg/mL): <0.25 µg/mL | MIC ATB in combination ([3]; ECL 260253, AF3 @ 8 μg/mL): <=0.25 μg/mL | MIC ATB in combination ([3]; ECL 260253, CLA @ 4 μg/mL): 64 µg/mL | MIC ATB in combination ([3]; ECL 260323, AF2 @ 8 μg/mL): <0.25 µg/mL | MIC ATB in combination ([3]; ECL 260323, AF3 @ 8 μg/mL): <0.25 µg/mL | MIC ATB in combination ([3]; ECL 260323, CLA @ 4 μg/mL): >128 µg/mL | MIC ATB in combination ([3]; ECL 260508, AF2 @ 8 μg/mL): <0.25 µg/mL | MIC ATB in combination ([3]; ECL 260508, AF3 @ 8 μg/mL): <=0.25 μg/mL | MIC ATB in combination ([3]; ECL 260508, CLA @ 4 μg/mL): 32 µg/mL | MIC ATB in combination ([3]; ECL HAN, AF2 @ 8 μg/mL): >128 µg/mL | MIC ATB in combination ([3]; ECL HAN, AF3 @ 8 μg/mL): >128 µg/mL | MIC ATB in combination ([3]; ECL HAN, CLA @ 4 μg/mL): >128 µg/mL | MIC ATB in combination ([3]; ECL NEM146383, AF2 @ 8 μg/mL): >128 µg/mL | MIC ATB in combination ([3]; ECL NEM146383, AF3 @ 8 μg/mL): 16 µg/mL | MIC ATB in combination ([3]; ECL NEM146383, CLA @ 4 μg/mL): >128 µg/mL | MIC ATB in combination ([3]; ECL P99, AF2 @ 8 μg/mL): 4 µg/mL | MIC ATB in combination ([3]; ECL P99, AF3 @ 8 μg/mL): 8 µg/mL | MIC ATB in combination ([3]; ECL P99, CLA @ 4 μg/mL): >128 µg/mL | MIC ATB in combination ([3]; ECL UFR12, AF2 @ 8 μg/mL): <=0.25 μg/mL | MIC ATB in combination ([3]; ECL UFR12, AF3 @ 8 μg/mL): <=0.25 μg/mL | MIC ATB in combination ([3]; ECL UFR12, CLA @ 4 μg/mL): 8 µg/mL | MIC ATB in combination ([3]; ECL UFR13, AF2 @ 8 μg/mL): 4 µg/mL | MIC ATB in combination ([3]; ECL UFR13, AF3 @ 8 μg/mL): 2 µg/mL | MIC ATB in combination ([3]; ECL UFR13, CLA @ 4 μg/mL): 128 µg/mL | MIC ATB in combination ([3]; ECL UFR14, AF2 @ 8 μg/mL): 32 µg/mL | MIC ATB in combination ([3]; ECL UFR14, AF3 @ 8 μg/mL): 32 µg/mL | MIC ATB in combination ([3]; ECL UFR14, CLA @ 4 μg/mL): >128 µg/mL | MIC ATB in combination ([3]; ECL UFR38, AF2 @ 8 μg/mL): <0.25 µg/mL | MIC ATB in combination ([3]; ECL UFR38, AF3 @ 8 μg/mL): >128 µg/mL | MIC ATB in combination ([3]; ECL UFR38, CLA @ 4 μg/mL): >128 µg/mL | MIC ATB in combination ([3]; ECL UFR51, AF2 @ 8 μg/mL): <0.25 µg/mL | MIC ATB in combination ([3]; ECL UFR51, AF3 @ 8 μg/mL): <0.25 µg/mL | MIC ATB in combination ([3]; ECL UFR51, CLA @ 4 μg/mL): >128 µg/mL | MIC ATB in combination ([3]; ECL UFR60, AF2 @ 8 μg/mL): 128 µg/mL | MIC ATB in combination ([3]; ECL UFR60, AF3 @ 8 μg/mL): 8 µg/mL | MIC ATB in combination ([3]; ECL UFR60, CLA @ 4 μg/mL): 128 µg/mL | MIC ATB in combination ([3]; ECL UFR70, AF2 @ 8 μg/mL): <=0.25 μg/mL | MIC ATB in combination ([3]; ECL UFR70, AF3 @ 8 μg/mL): <0.25 µg/mL | MIC ATB in combination ([3]; ECL UFR70, CLA @ 4 μg/mL): >128 µg/mL | MIC ATB in combination ([3]; ECL UFR84, AF2 @ 8 μg/mL): >128 µg/mL | MIC ATB in combination ([3]; ECL UFR84, AF3 @ 8 μg/mL): 64 µg/mL | MIC ATB in combination ([3]; ECL UFR84, CLA @ 4 μg/mL): >128 µg/mL | MIC ATB in combination ([3]; ECL UFR85, AF2 @ 8 μg/mL): <0.25 µg/mL | MIC ATB in combination ([3]; ECL UFR85, AF3 @ 8 μg/mL): 1 µg/mL | MIC ATB in combination ([3]; ECL UFR85, CLA @ 4 μg/mL): >128 µg/mL | MIC ATB in combination ([3]; ECL UFR200, AF2 @ 8 μg/mL): 1 µg/mL | MIC ATB in combination ([3]; ECL UFR200, AF3 @ 8 μg/mL): 0.5 µg/mL | MIC ATB in combination ([3]; ECL UFR200, CLA @ 4 μg/mL): 16 µg/mL | MIC ([3]; strain ECL 2185D, genotype OXA-163): >128 µg/mL | MIC ([3]; strain ECL 190310, genotype AmpC): >128 µg/mL | MIC ([3]; strain ECL 190408, genotype TEM-1, CTX-M-15, OXA-1): 512 µg/mL | MIC ([3]; strain ECL 200138, genotype AmpC): >128 µg/mL | MIC ([3]; strain ECL 200322, genotype TEM-1, CTX-M-15, OXA-1): >128 µg/mL | MIC ([3]; strain ECL 260033, genotype AmpC): >128 µg/mL
